The term EC50 denotes the concentration needed to bring the measured effect to its halfway point.

Each structure is given as a SMILES string.

The assay has as its target recombinant human nicotinic acid receptor (NAR) (Homo sapiens, UniProt Q8TDS4). As to the kind of experiment: Nicotinic acid receptor assay: inhibition of forskolin-stimulated cAMP accumulation (MesoScale Discovery cAMP detection kit) in CHO cells. It is filed as cell-based. The settings on record: CHO cells expressing recombinant human NAR, activity class, read-out: NA EC50 camp. As for the experimental part:
The nicotinic acid receptor agonist activity of the inventive compounds was determined by following the inhibition of forskolin-stimulated cAMP accumulation in cells using the MesoScale Discovery cAMP detection kit following the manufacturer's protocol. Briefly, Chinese Hamster Ovary (CHO) cells expressing recombinant human nicotinic acid receptor (NAR) were harvested enzymatically, washed 1× in phosphate buffered saline (PBS) and resuspended in PBS containing 0.5 mM IBMX at 3×10^6 cells/mL. Ten μL of cell suspension was added to each well of a 384-well plate which contained 10 μL of test compounds. Test compounds were diluted with PBS containing 6 μM of forskolin. Plates were incubated for 30 minutes at room temperature after the addition of cells. Lysis buffer containing cAMP-Tag was added to each well (10 μL/well) as per the manufacturer's protocol. Plates were then incubated from 45 minutes to overnight. Prior to reading, 10 μt of read buffer was added to each well, and the plate was read in a Sector 6000 plate imager. The signal was converted to cAMP concentration using a standard curve run on each plate. Compound EC50 values were determined from concentration gradients of test compounds.

recombinant human nicotinic acid receptor (NAR), sequence (Q8TDS4 whole entry): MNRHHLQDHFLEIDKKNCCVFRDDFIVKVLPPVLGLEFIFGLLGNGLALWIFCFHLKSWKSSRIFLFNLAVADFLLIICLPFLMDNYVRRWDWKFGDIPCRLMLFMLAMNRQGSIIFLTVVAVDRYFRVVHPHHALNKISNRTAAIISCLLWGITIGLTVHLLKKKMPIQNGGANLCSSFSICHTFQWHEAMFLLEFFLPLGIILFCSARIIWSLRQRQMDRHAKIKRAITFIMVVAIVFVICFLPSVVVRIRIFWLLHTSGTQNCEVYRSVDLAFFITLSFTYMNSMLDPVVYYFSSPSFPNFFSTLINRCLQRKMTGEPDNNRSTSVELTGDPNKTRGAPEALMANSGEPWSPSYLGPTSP

As for `O=c1[nH]c(=O)c2c(Cc3cccc(Br)c3)cc(=O)oc2[nH]1` [Compound 238], the concentration giving a half-maximal response (EC50) lay in the range of 100 to 1000 nM.

These data come from US20100227873A1, “NITROGEN-CONTAINING HETEROCYCLIC COMPOUNDS AND METHODS OF USE THEREOF” (Schering Corporation, priority 2005, published 2010).
